Tests used:
BMPRII = biological target: T1, BMPRII (Homo sapiens, UniProt Q13873); test: In vitro kinase IC50; format: biochemical; conditions: kinase activity; ATP 10 Micromolar; 10-point, duplicate
T1 construct: purchased Reaction Biology Corporation (Malvern, PA)
T1 sequence (Q13873 27-1038): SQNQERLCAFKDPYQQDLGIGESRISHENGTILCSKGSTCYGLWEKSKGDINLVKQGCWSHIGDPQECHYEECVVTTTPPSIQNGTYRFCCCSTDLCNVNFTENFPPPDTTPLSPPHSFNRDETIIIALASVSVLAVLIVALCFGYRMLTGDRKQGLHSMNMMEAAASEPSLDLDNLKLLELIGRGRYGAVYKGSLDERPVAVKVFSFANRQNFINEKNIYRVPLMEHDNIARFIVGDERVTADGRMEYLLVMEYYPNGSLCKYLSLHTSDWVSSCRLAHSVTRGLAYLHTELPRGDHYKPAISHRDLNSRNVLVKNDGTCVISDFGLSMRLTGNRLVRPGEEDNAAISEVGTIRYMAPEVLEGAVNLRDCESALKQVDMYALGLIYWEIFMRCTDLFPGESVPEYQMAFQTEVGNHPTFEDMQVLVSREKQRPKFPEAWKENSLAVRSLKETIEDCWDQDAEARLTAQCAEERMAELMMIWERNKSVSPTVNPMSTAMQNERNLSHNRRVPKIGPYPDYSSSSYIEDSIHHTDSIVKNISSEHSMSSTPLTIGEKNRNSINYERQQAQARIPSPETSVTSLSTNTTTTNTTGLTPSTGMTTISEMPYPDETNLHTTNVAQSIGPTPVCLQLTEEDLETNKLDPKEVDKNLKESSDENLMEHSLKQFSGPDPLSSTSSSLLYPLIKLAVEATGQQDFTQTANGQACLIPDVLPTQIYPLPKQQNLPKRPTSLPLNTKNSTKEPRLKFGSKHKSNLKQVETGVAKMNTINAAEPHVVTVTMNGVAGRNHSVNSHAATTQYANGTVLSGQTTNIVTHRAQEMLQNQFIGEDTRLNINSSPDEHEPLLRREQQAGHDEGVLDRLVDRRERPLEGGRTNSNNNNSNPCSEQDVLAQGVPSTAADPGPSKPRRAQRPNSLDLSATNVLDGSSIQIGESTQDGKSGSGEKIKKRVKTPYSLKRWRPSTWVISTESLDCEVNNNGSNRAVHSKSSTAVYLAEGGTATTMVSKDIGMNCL
Source text: The ATP concentration was 10 Micromolar.

[1] = Plasma protein binding by equilibrium dialysis; format: in vitro ADME; conditions: human plasma
A549 cells [2] = test: Western blot analysis of cells in culture; format: cell-based
Method: (§1) Total cellular protein was prepared using RIPA buffer containing a protease inhibitor cocktail and protein concentration was measured using the BCA assay as described. In brief, protein was analyzed by SDS-PAGE, transferred to nitrocellulose (Schleicher and Schuell, Keene, NH). After blocking, the blots were incubated overnight at 4 °C with the appropriate primary antibody in Tris-buffered saline with 1 % Tween (TBST) and 5 % BSA. Secondary antibodies were applied for 1 h at room temperature. Specific proteins were detected using the enhanced chemiluminescence system (Amersham, Arlington Heights, IL). The primary antibodies that were used were rabbit monoclonal anti-pSmad 1/5, rabbit monoclonal anti-pSmad2, rabbit monoclonal anti-Smad2, rabbit monoclonal anti-pTAK1, rabbit monoclonal XIAP, rabbit anti-monoclonal p-p65, rabbit monoclonal anti-activated caspase-3, rabbit polyclonal anti-BMPRII, and rabbit monoclonal anti-EGR-1 (Cell signaling Technology, Danvers MA), Rabbit monoclonal anti-TAK1 (Invitrogen, Grand Island NY), rabbit anti-actin, an affinity isolated antigen specific antibody (Sigma, Saint Louis, MO), rabbit monoclonal anti-Id1 and rabbit monoclonal anti-Id3 (Calbioreagents, San Mateo, CA), rabbit polyclonal anti-GAPDH (Sigma, St. Louis, MO) and rabbit polyclonal pMEK-1/2 (Cell Signaling, Danvers MA).

H1299 cells [3] = test: Western blot analysis of cells in culture; format: cell-based; conditions: H1299 cells
Method: as §1

A549 cells [4] = test: Cell death assay (ethidium bromide uptake); format: cell-based; conditions: after 3 days
Method: (§2) Cells were plated in 6 well plates with 10^6 cells per well. Three days following treatment with inhibitor(s) and/or transfection the adherent and floating cells were harvested and incubated with 0.1 mg/ml of ethidium bromide. Cells that die by necrosis or apoptosis lose membrane integrity and take up ethidium bromide. Immediately after staining approximately 100 cells were counted and the percentage of cells that took up ethidium bromide was determined.

H1299 cells [5] = test: Cell death assay (ethidium bromide uptake); format: cell-based
Method: as §2

H1299 tumor xenografts = test: Western blot analysis of tumor xenografts; format: in vivo, nude mice
Method: Total cellular protein was prepared using RIPA buffer containing a protease inhibitor cocktail and protein concentration was measured using the BCA assay as described. In brief, protein was analyzed by SDS-PAGE, transferred to nitrocellulose (Schleicher and Schuell, Keene, NH). After blocking, the blots were incubated overnight at 4 °C with the appropriate primary antibody in Tris-buffered saline with 1 % Tween (TBST) and 5 % BSA. Secondary antibodies were applied for 1 h at room temperature. Specific proteins were detected using the enhanced chemiluminescence system (Amersham, Arlington Heights, IL). […]
H1299 cells were stably transfected with the Id1 promoter-luciferase reporter. […] After approximately 12 days the mice were anesthetized and the luciferase activity measured. […] Mice were injected IP with 150 mg/kg luciferin-D and after a 15-min uptake period tumors were imaged with IVIS Spectrum and analyzed using Living Image software. […]

A549 cells [6] = test: Cell counts (live cells, trypan blue); format: cell-based; conditions: compound alone, 7 days
Method: (§3) Cells were plated into 6 well plates at 10^5 cells per well and treated with 1 μM DMSO or antagonist for 7 days. The cells were detached with trypsin, stained with trypan blue, and the number of live cells counted using a hemocytometer.

H1299 cells [7] = test: Cell counts (live cells, trypan blue); format: cell-based
Method: as §3

[8] = 24 and 48 h, suppression at higher concentrations

**Q.** What does the source list for `c1ccc2c(-c3cnn4cc(-c5ccc(OCCN6CCOCC6)cc5)cnc34)ccnc2c1` [DMH2]?
**A.** IC50 (BMPRII): 7.95 µM; percent binding plasma proteins [1]: 98.6 % +/−0.7; low dose that can cause an increase in the expression of Id1 (A549 cells [2]; [8]): 0.5 µM; expression of activated caspase-3 (A549 cells [2]; 48 h): induced; expression of phosphorylated MEK-1/2 (A549 cells [2]; 48 h): increase; expression of Smad2 (A549 cells [2]; 3 days): very significant decrease; expression of TAK1 and phosphorylation of NF-kappa B subunit p65 (A549 cells [2]; 3 days): decrease; expression of XIAP (A549 cells [2]; after 3 days): significant decrease; phosphorylation of TAK1 and Smad2 (A549 cells [2]; increasing doses, 48 h): increase in phosphorylation of TAK1and Smad2 at lower doses, which tapered off at higher doses; expression of phosphorylated MEK-1/2 (H1299 cells [3]; 24 and 48 h): increase; low dose that can cause an increase in the expression of Id1 (H1299 cells [3]; [8]): 0.5 µM; expression of activated caspase-3 (H1299 cells [3]; 48 h): induced; expression of Smad2 (H1299 cells [3]; 3 days): very significant decrease; expression of TAK1 and phosphorylation of NF-kappa B subunit p65 (H1299 cells [3]; 3 days): decrease; expression of XIAP (H1299 cells [3]; after 3 days (cell line not stated for DMH1 and LDN)): significant decrease; phosphorylation of TAK1 and Smad2 (H1299 cells [3]; increasing doses, 48 h): increase in phosphorylation of TAK1and Smad2 at lower doses, which tapered off at higher doses; cell death (A549 cells [4]): significant cells death; cell death compared to DMH1 and LDN (H1299 cells [5]; H1299 cells): significantly greater; cell death in cells expressing mutant XIAP (H1299 cells [5]; H1299 cells stably expressing mutant XIAP, 3 days): resistant to cell death; cell death (H1299 cells [5]; H1299 cells, after 3 days): significant cells death; increase in the expression of Id1 protein compared to controls (H1299 tumor xenografts; 9 days, twice-daily injection, normalized to GAPDH): 103%; phosphorylated TAK1 and Smad2 in tumor xenografts (H1299 tumor xenografts; treated for 24 h and 9 days): increase; growth (cell counts) (A549 cells [6]): growth suppression; growth suppression compared to DMH1 and LDN (H1299 cells [7]): significantly greater growth suppression; growth (cell counts) (H1299 cells [7]; compound alone, 7 days): significant growth suppression

Source: paper PMC4822253, “Inhibition of BMP and of TGFβ receptors downregulates expression of XIAP and TAK1 leading to lung cancer cell death” (Molecular Cancer, 2016)
